Test results taken from ChEMBL document CHEMBL5506046, “Discovery of LLC355 as an Autophagy-Tethering Compound for the Degradation of Discoidin Domain Receptor 1” (J Med Chem, 2024).
Blank lines part the entries; values can stand above or below the compound they belong to. Calls of active or inactive are those of the source. The calls are words filed in the database; no cut-off is given here.

Legend:
[1] = biological target: T1, LC3/Epithelial discoidin domain-containing receptor 1 (Homo sapiens, UniProt Q08345+Q9BXW4+Q9GZQ8+Q9H492); assay: Autophagosome tethering activity at DDR1 in human NCI-H23 cells assessed as protein degradation at 0.3 uM measured after 24 hrs by immunoblotting analysis relative to control; assay type: cell-based
[2] = biological target: T1, LC3/Epithelial discoidin domain-containing receptor 1; assay: Autophagosome tethering activity at DDR1 in human NCI-H23 cells assessed as induction of protein degradation incubated for 12 hrs by immunoblotting analysis; assay type: cell-based
[3] = biological target: LC3/Discoidin domain-containing receptor 2 (Homo sapiens) (UniProt Q16832+Q9BXW4+Q9GZQ8+Q9H492); assay: Autophagosome tethering activity at DDR2 in human NCI-H23 cells assessed as induction of protein degradation at 100 to 1000 nM incubated for 24 hrs by immunoblotting analysis; assay type: cell-based; settings: dose 100-1000 nM
[4] = biological target: T1, LC3/Epithelial discoidin domain-containing receptor 1; assay: Autophagosome tethering activity at DDR1 in human NCI-H23 cells assessed as induction of protein degradation at 1 uM by immunoblotting analysis; assay type: cell-based; settings: time 1-24 hrs, TDE = time-dependent effect
[5] = biological target: T1, LC3/Epithelial discoidin domain-containing receptor 1; assay: Autophagosome tethering activity at DDR1 in human PANC-1 cells assessed as induction of protein degradation at 100 to 1000 nM measured after 24 hrs by immunoblotting analysis; assay type: cell-based; settings: dose 100-1000 nM
[6] = biological target: T1, LC3/Epithelial discoidin domain-containing receptor 1; assay: Autophagosome tethering activity at DDR1 in human MIA PaCa-2 cells assessed as induction of protein degradation at 100 to 1000 nM measured after 24 hrs by immunoblotting analysis; assay type: cell-based; settings: dose 100-1000 nM
[7] = tested on: NCI-H23; assay: Effect on DDR1 mRNA level in human NCI-H23 cells at 0.3 to 1 uM incubated for 24 hrs by qRT-PCR analysis; assay type: functional, cell-based; settings: dose 0.3-1 µM
[8] = Half life in Sprague-Dawley rat at 2 mg/kg, iv measured up to 24 hrs by LC-MS/MS analysis; assay type: ADME, organism-based; settings: in vivo
[9] = Tmax in Sprague-Dawley rat at 2 mg/kg, iv measured up to 24 hrs by LC-MS/MS analysis; assay type: ADME, organism-based; settings: in vivo
[10] = Cmax in Sprague-Dawley rat at 2 mg/kg, iv measured up to 24 hrs by LC-MS/MS analysis; assay type: ADME, organism-based; settings: in vivo
[11] = AUC(0 to t) in Sprague-Dawley rat at 2 mg/kg, iv measured up to 24 hrs by LC-MS/MS analysis; assay type: ADME, organism-based; settings: in vivo
[12] = Clearance in Sprague-Dawley rat at 2 mg/kg, iv measured up to 24 hrs by LC-MS/MS analysis; assay type: ADME, organism-based; settings: in vivo
[13] = Half life in Sprague-Dawley rat at 10 mg/kg, po measured up to 24 hrs by LC-MS/MS analysis; assay type: ADME, organism-based; settings: in vivo
[14] = Tmax in Sprague-Dawley rat at 10 mg/kg, po measured up to 24 hrs by LC-MS/MS analysis; assay type: ADME, organism-based; settings: in vivo
[15] = Cmax in Sprague-Dawley rat at 10 mg/kg, po measured up to 24 hrs by LC-MS/MS analysis; assay type: ADME, organism-based; settings: in vivo
[16] = AUC(0 to t) in Sprague-Dawley rat at 10 mg/kg, po measured up to 24 hrs by LC-MS/MS analysis; assay type: ADME, organism-based; settings: in vivo
[17] = Oral bioavailability in Sprague-Dawley rat at 10 mg/kg measured up to 24 hrs by LC-MS/MS analysis; assay type: ADME, organism-based; settings: in vivo
[18] = biological target: T1, LC3/Epithelial discoidin domain-containing receptor 1; assay: Autophagosome tethering activity at DDR1 in human NCI-H23 cells assessed as induction of protein degradation at 1 uM measured for 1 to 24 hrs in presence of cycloheximide by immunoblotting analysis; assay type: cell-based; settings: time 1-24 hrs
[19] = biological target: T1, LC3/Epithelial discoidin domain-containing receptor 1; assay: Autophagosome tethering activity at DDR1 in human NCI-H23 cells assessed as induction of protein degradation at 1 uM pretreated for 24 hrs followed by medium replacement with compound-free medium measured for 12 hrs by Western blot analysis; assay type: cell-based
[20] = biological target: T1, LC3/Epithelial discoidin domain-containing receptor 1; assay: Autophagosome tethering activity at DDR1 in human NCI-H23 cells assessed as induction of protein degradation at 1 uM measured for >48 hrs by Western blot analysis; assay type: cell-based
[21] = biological target: T1, LC3/Epithelial discoidin domain-containing receptor 1; assay: Autophagosome tethering activity at DDR1 in bafilomycin A1-treated human NCI-H23 cells assessed as induction of protein degradation at 1 uM incubated for 12 hrs by Western blot analysis; assay type: cell-based
[22] = biological target: T1, LC3/Epithelial discoidin domain-containing receptor 1; assay: Autophagosome tethering activity at DDR1 in chloroquine-treated human NCI-H23 cells assessed as induction of protein degradation at 1 uM incubated for 12 hrs by Western blot analysis; assay type: cell-based
[23] = biological target: T1, LC3/Epithelial discoidin domain-containing receptor 1; assay: Autophagosome tethering activity at DDR1 in rapamycin-treated human NCI-H23 cells assessed as induction of protein degradation at 0.3 uM incubated for 12 hrs by Western blot analysis; assay type: cell-based
[24] = biological target: T1, LC3/Epithelial discoidin domain-containing receptor 1; assay: Autophagosome tethering activity at DDR1 in human NCI-H23 cells assessed as induction of protein degradation at 10 uM incubated for 6 hrs by Western blot analysis; assay type: cell-based
[25] = biological target: T1, LC3/Epithelial discoidin domain-containing receptor 1; assay: Autophagosome tethering activity at DDR1 in human NCI-H23 cells assessed as induction of protein degradation at 10 uM incubated for 6 hrs by TMT-based global proteomic profiling analysis; assay type: cell-based
[26] = tested on: NCI-H23; assay: Downregulation of CDCA7 expression in human NCI-H23 cells at 10 uM incubated for 6 hrs by Western blot analysis; assay type: functional, cell-based
[27] = tested on: NCI-H23; assay: Downregulation of LIPA expression in human NCI-H23 cells at 10 uM incubated for 6 hrs by Western blot analysis; assay type: functional, cell-based
[28] = tested on: NCI-H23; assay: Downregulation of PPIC expression in human NCI-H23 cells at 10 uM incubated for 6 hrs by Western blot analysis; assay type: functional, cell-based
[29] = tested on: NCI-H23; assay: Downregulation of REEP3 expression in human NCI-H23 cells at 10 uM incubated for 6 hrs by Western blot analysis; assay type: functional, cell-based
[30] = tested on: NCI-H23; assay: Downregulation of RBM3 expression in human NCI-H23 cells at 10 uM incubated for 6 hrs by Western blot analysis; assay type: functional, cell-based
[31] = tested on: NCI-H23; assay: Downregulation of BNIP3 expression in human NCI-H23 cells at 10 uM incubated for 6 hrs by Western blot analysis; assay type: functional, cell-based
[32] = tested on: NCI-H23; assay: Downregulation of GOLM1 expression in human NCI-H23 cells at 10 uM incubated for 6 hrs by Western blot analysis; assay type: functional, cell-based
[33] = tested on: NCI-H23; assay: Downregulation of CDK4 expression in human NCI-H23 cells at 10 uM incubated for 6 hrs by Western blot analysis; assay type: functional, cell-based
[34] = tested on: NCI-H23; assay: Downregulation of EXO1 expression in human NCI-H23 cells at 10 uM incubated for 6 hrs by Western blot analysis; assay type: functional, cell-based
[35] = tested on: NCI-H23; assay: Inhibition of cell migration in human NCI-H23 cells at 0.3 uM incubated for 24 hrs by transwell assay; assay type: functional, cell-based
[36] = tested on: NCI-H23; assay: Inhibition of cell invasion in human NCI-H23 cells at 0.3 uM incubated for 24 hrs by transwell assay; assay type: functional, cell-based
[37] = tested on: NCI-H23; assay: Induction of apoptosis in human NCI-H23 cells assessed as increase in cleaved PARP level at 0.3 uM incubated for 24 hrs by Western blot analysis; assay type: functional, cell-based
[38] = tested on: NCI-H23; assay: Induction of apoptosis in human NCI-H23 cells assessed as increase in cleaved PARP level at 1 uM incubated for 24 hrs by Western blot analysis; assay type: functional, cell-based
[39] = tested on: NCI-H23; assay: Inhibition of tumorigenicity in human NCI-H23 cells at 0.1 to 1 uM incubated for 10 days by colony formation assay; assay type: functional, cell-based; settings: dose 0.1-1 µM, time 10.0 day
[40] = Toxicity in Sprague-Dawley rat at 10 mg/kg, po or 2 mg/kg, iv measured up to 24 hrs by LC-MS/MS analysis; assay type: organism-based; settings: in vivo
[41] = Toxicity in Sprague-Dawley rat assessed as drug tolerance at 10 mg/kg, po or 2 mg/kg, iv measured up to 24 hrs by LC-MS/MS analysis; assay type: organism-based; settings: in vivo

SMILES: CCc1ccc(C(=O)Nc2cc(CN3CCN(CC(=O)NCCCN(C(=O)c4ccc(C)cc4)[C@@H](c4nc5cc(Cl)ccc5c(=O)n4Cc4ccccc4)C(C)C)CC3)cc(C(F)(F)F)c2)cc1C#Cc1cnc2ccnn2c1
Activity [1]: 4%

SMILES: CCc1ccc(C(=O)Nc2cc(CN3CCN(CCCC(=O)NCCCN(C(=O)c4ccc(C)cc4)[C@@H](c4nc5cc(Cl)ccc5c(=O)n4Cc4ccccc4)C(C)C)CC3)cc(C(F)(F)F)c2)cc1C#Cc1cnc2ccnn2c1
Activity [1]: 6%

SMILES: CCc1ccc(C(=O)Nc2cc(CN3CCN(CCOCCOCCOCC(=O)NCCCN(C(=O)c4ccc(C)cc4)[C@@H](c4nc5cc(Cl)ccc5c(=O)n4Cc4ccccc4)C(C)C)CC3)cc(C(F)(F)F)c2)cc1C#Cc1cnc2ccnn2c1
Activity [1]: 0%

SMILES: CCc1ccc(C(=O)Nc2cc(CN3CCN(CCCCCCCC(=O)NCCCN(C(=O)c4ccc(C)cc4)[C@@H](c4nc5cc(Cl)ccc5c(=O)n4Cc4ccccc4)C(C)C)CC3)cc(C(F)(F)F)c2)cc1C#Cc1cnc2ccnn2c1
Activity [1]: 6%

SMILES: CCc1ccc(C(=O)Nc2cc(CN3CCN(CCOCC(=O)NCCCN(C(=O)c4ccc(C)cc4)[C@@H](c4nc5cc(Cl)ccc5c(=O)n4Cc4ccccc4)C(C)C)CC3)cc(C(F)(F)F)c2)cc1C#Cc1cnc2ccnn2c1
Activity [1]: 40%
DC50 [2]: 151 nM
Activity ([2]; dose 1-10000 nM): Dose-Dependent Effect
Activity [3]: inactive
Activity [4]: Tde
Activity [5]: Active
Activity [6]: Active
Activity [7]: inactive
half-life [8]: 3.18 h
Tmax [9]: 4.8 min
Cmax [10]: 27000 ng/mL
AUC(0-t) at 24 h [11]: 30100 ng·h/mL
clearance [12]: 1.11 mL/min/kg
half-life [13]: 3.99 h
Tmax [14]: 3.33 h
Cmax [15]: 226 ng/mL
AUC(0-t) at 24 h [16]: 1150 ng·h/mL
bioavailability [17]: 0.77%
Activity [18]: inactive
Activity [19]: Active
Activity [20]: Active
Activity [21]: inactive
Activity [22]: inactive
Activity [23]: Active
Activity [24]: Active
Activity [25]: Active
Activity [26]: Active
Activity [27]: Active
Activity [28]: Active
Activity [29]: Active
Activity [30]: Active
Activity [31]: Active
Activity [32]: Active
Activity [33]: Active
Activity [34]: Active
inhibition [35]: Active
inhibition [36]: Active
Activity [37]: inactive
Activity [38]: Active
inhibition [39]: Active
Activity [40]: Non-Toxic
Activity [41]: Non-Toxic

The remaining lines, values ahead:

Activity [1]: 12%
SMILES: CCc1ccc(C(=O)Nc2cc(CN3CCN(C(=O)CCCCCNC(=O)COc4c(Br)cc(/C=C5\C(=O)Nc6ccc(I)cc65)cc4Br)CC3)cc(C(F)(F)F)c2)cc1C#Cc1cnc2ccnn2c1

Activity [1]: 0%
SMILES: CCc1ccc(C(=O)Nc2cc(CN3CCN(C(=O)COCCOCCOCCNC(=O)COc4c(Br)cc(/C=C5\C(=O)Nc6ccc(I)cc65)cc4Br)CC3)cc(C(F)(F)F)c2)cc1C#Cc1cnc2ccnn2c1

Activity [1]: 4%
SMILES: CCc1ccc(C(=O)Nc2cc(CN3CCN(C(=O)COc4c(Br)cc(/C=C5\C(=O)Nc6ccc(I)cc65)cc4Br)CC3)cc(C(F)(F)F)c2)cc1C#Cc1cnc2ccnn2c1

Activity [1]: 17%
SMILES: CCc1ccc(C(=O)Nc2cc(CN3CCN(C(=O)CCCNC(=O)COc4c(Br)cc(/C=C5\C(=O)Nc6ccc(I)cc65)cc4Br)CC3)cc(C(F)(F)F)c2)cc1C#Cc1cnc2ccnn2c1
